Measured values: patent publication US10611778B2, “Fused bicyclic inhibitors of menin-MLL interaction” (Janssen Pharmaceutica NV, priority 2016, dated 2020)

Biological target: T1, Menin/MLL (terbium chelate-labeled menin, FITC-MBM1 peptide) (Homo sapiens, UniProt O00255, T541A)
T1 construct: Menin (a.a. 1-610-6×his tag) was labeled with terbium cryptate as follows
T1 sequence (O00255 with tags, fused parts or gaps T541A): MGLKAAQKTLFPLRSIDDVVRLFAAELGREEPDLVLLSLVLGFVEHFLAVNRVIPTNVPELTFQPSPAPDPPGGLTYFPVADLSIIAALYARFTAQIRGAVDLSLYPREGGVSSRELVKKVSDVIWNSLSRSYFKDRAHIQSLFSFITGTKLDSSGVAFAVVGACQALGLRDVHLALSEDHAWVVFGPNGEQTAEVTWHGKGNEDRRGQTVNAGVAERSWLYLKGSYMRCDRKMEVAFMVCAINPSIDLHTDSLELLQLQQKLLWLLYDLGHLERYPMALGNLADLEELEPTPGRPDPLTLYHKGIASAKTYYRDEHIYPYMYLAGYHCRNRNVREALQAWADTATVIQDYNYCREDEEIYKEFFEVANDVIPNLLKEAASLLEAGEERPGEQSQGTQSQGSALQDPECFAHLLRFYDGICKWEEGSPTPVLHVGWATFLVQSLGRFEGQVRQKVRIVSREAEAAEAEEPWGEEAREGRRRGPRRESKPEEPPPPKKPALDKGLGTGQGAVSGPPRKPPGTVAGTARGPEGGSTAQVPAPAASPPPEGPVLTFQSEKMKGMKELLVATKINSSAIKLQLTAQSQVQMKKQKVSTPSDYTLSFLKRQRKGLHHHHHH
Assay: Menin/MLL homogenous time-resolved fluorescence (HTRF) assay
Assay type: binding
Conditions: averaged values over all measurements; read-out: Menin HTRF assay (IC50)
Protocol: 3) Menin/MLL Homogenous Time-Resolved Fluorescence (HTRF) Assay
To an untreated, white 384-well microtiter plate was added 40 nL 200× test compound in DMSO and 4 μL 2× terbium chelate-labeled menin (vide infra for preparation) in assay buffer (40 mM Tris-HCl, pH 7.5, 50 mM NaCl, 1 mM DTT and 0.05% Pluronic F-127). After incubation of test compound and terbium chelate-labeled menin for 5 min at ambient temperature, 4 μL 2×FITC-MBM1 peptide (FITC-β-alanine-SARWRFPARPGT-NH2) in assay buffer was added, the microtiter plate centrifuged at 1000 rpm for 1 min and the assay mixtures incubated for 15 min at ambient temperature. The relative amount of menin⋅FITC-MBM1 complex present in an assay mixture is determined by measuring the homogenous time-resolved fluorescence (HTRF) of the terbium/FITC donor/acceptor fluorophore pair using a BMG Pherastar plate reader (ex. 337 nm/terbium em. 490 nm/FITC em. 520 nm) at ambient temperature. The degree of fluorescence resonance energy transfer (the HTRF value) is expressed as the ratio of the fluorescence emission intensities of the FITC and terbium fluorophores (F^em 520 nm/F^em 490 nm). The final concentrations of reagents in the binding assay are 100 pM terbium chelate-labeled menin, 75 nM FITC-MBM1 peptide and 0.5% DMSO in assay buffer. Dose-response titrations of test compounds are conducted using an 11 point, three-fold serial dilution scheme, starting at 31 μM.
Compound potencies were determined by first calculating % inhibition at each compound concentration according to equation 1: % inhibition=((HC−LC)−(HTRF^compound−LC))/(HC−LC))*100 (Eqn 1)
Where LC and HC are the HTRF values of the assay in the presence or absence of a saturating concentration of a compound that competes with FITC-MBM1 for binding to menin, and HTRF^compound is the measured HTRF value in the presence of the test compound. HC and LC HTRF values represent an average of at least 16 replicates per plate.
Where Bottom and Top are the lower and upper asymptotes of the dose-response curve, respectively, IC50 is the concentration of compound that yields 50% inhibition of signal and h is the Hill coefficient.
Preparation of Terbium cryptate labeling of Menin: Menin (a.a. 1-610-6×his tag) was labeled with terbium cryptate as follows. 2 mg of Menin was buffer exchanged into 1× phosphate buffered saline. 16 uM Menin was incubated with 4-fold molar excess NHS-terbium cryptate (Cisbio Bioassays, Bedford, Mass.) for 2 hours at room temperature. The labeled protein was purified away from free label by running the reaction over a Superdex 200 Increase 10/300 GL column at 0.75 ml/min. Peak fractions were collected, aliquoted and frozen at −80° C.

| IC50 [nM] | SMILES |
| --- | --- |
| 8330 | Cn1cc(CN2C(=O)C[C@H]3CCN(c4ncnc5sc(CC(F)(F)F)cc45)C[C@H]32)cn1 (single isomer, unassigned) [Compound 35A] |
| > 25000 | Cn1cc(CN2C(=O)C[C@@H]3CCN(c4ncnc5sc(CC(F)(F)F)cc45)C[C@@H]32)cn1 (single isomer, unassigned) [Compound 35B] |
| 446 | FC(F)(F)Cc1cc2c(N3C[C@H]4CCN(CCc5ccccc5)C[C@H]4C3)ncnc2s1 (single isomer, unassigned) [Compound 48] |
| 281 | FC(F)(F)Cc1cc2c(N3C[C@H]4CCN(Cc5ccncn5)C[C@H]4C3)ncnc2s1 (single isomer, unassigned) [Compound 50] |
| 252 | FC(F)(F)Cc1cc2c(N3C[C@H]4CCN(Cc5cnccn5)C[C@H]4C3)ncnc2s1 (single isomer, unassigned) [Compound 53] |
| 492 | O=c1cc(CN2CC[C@@H]3CN(c4ncnc5sc(CC(F)(F)F)cc45)C[C@@H]3C2)cc[nH]1 (single isomer, unassigned) [Compound 66] |
| 985 | Cn1cc(CN2CC[C@@H]3CN(c4ncnc5sc(CC(F)(F)F)cc45)C[C@@H]3C2)cn1 (single isomer, unassigned) [Compound 71A] |
| 991 | FC(F)(F)Cc1cc2c(N3C[C@H]4CN(Cc5cccnc5)CC[C@H]4C3)ncnc2s1 (single isomer, unassigned) [Compound 72] |
| 2460 | FC(F)(F)Cc1cc2c(N3C[C@H]4CCN(CC(F)(F)F)C[C@H]4C3)ncnc2s1 (single isomer, unassigned) [Compound 73] |
| 2220 | FC(F)CN1CC[C@@H]2CN(c3ncnc4sc(CC(F)(F)F)cc34)C[C@@H]2C1 (single isomer, unassigned) [Compound 74] |
| 201 | CC(C)[C@H](c1cnn(C)c1)N1CC[C@@H]2CN(c3ncnc4sc(CC(F)(F)F)cc34)C[C@@H]2C1 (single isomer, unassigned) [Compound 77A] |
| 1620 | CC(C)[C@@H](c1cnn(C)c1)N1CC[C@@H]2CN(c3ncnc4sc(CC(F)(F)F)cc34)C[C@@H]2C1 (single isomer, unassigned) [Compound 77B] |
| 520 | CC(C)[C@H](c1cnn(C)c1)N1CC[C@H]2CN(c3ncnc4sc(CC(F)(F)F)cc34)C[C@H]2C1 (single isomer, unassigned) [Compound 78A] |
| 1320 | CC(C)[C@@H](c1cnn(C)c1)N1CC[C@H]2CN(c3ncnc4sc(CC(F)(F)F)cc34)C[C@H]2C1 (single isomer, unassigned) [Compound 78B] |
| 955 | C[C@H](c1cnn(C)c1)N1CC[C@@H]2CN(c3ncnc4sc(CC(F)(F)F)cc34)C[C@@H]2C1 (single isomer, unassigned) [Compound 79A] |
| 964 | C[C@@H](c1cnn(C)c1)N1CC[C@@H]2CN(c3ncnc4sc(CC(F)(F)F)cc34)C[C@@H]2C1 (single isomer, unassigned) [Compound 79B] |
| 20 | Cn1cc(CN2CC[C@@H]3CN(c4ncnc5sc(CC(F)(F)F)cc45)C[C@@H]3C2)cn1 (single isomer, unassigned) [Compound 87] |
| 267 | COc1ncc(CN2CC[C@@H]3CN(c4ncnc5sc(CC(F)(F)F)cc45)C[C@@H]3C2)cn1 (single isomer, unassigned) [Compound 88] |
| 317 | Cc1ncc(CN2CC[C@@H]3CN(c4ncnc5sc(CC(F)(F)F)cc45)C[C@@H]3C2)cn1 (single isomer, unassigned) [Compound 90] |
| 504 | FC(F)(F)Cc1cc2c(N3C[C@H]4CCN(CC5(F)CCOCC5)C[C@H]4C3)ncnc2s1 (single isomer, unassigned) [Compound 98] |
| 375 | FC(F)(F)Cc1cc2c(N3C[C@H]4CCN(Cc5cncnc5)C[C@H]4C3)ncnc2s1 (single isomer, unassigned) [Compound 104] |
